Measurements as given in publication PMC9687610, “Adenosine-Mimicking Derivatives of 3-Aminopyrazine-2-Carboxamide: Towards Inhibitors of Prolyl-tRNA Synthetase with Antimycobacterial Activity” (Biomolecules, 2022).
≈ marks a conversion by molar mass, not a printed value. Like-named read-outs stand apart in the source and are kept apart here.

Experiments:
[1] = test system: Trichophyton interdigitale CCM 8377 (ATCC 9533); experiment: Antifungal microdilution broth (EUCAST), TI; type: cell-based; details: Trichophyton interdigitale, 72 h, read-out: TI MIC
[2] = test system: Mycobacterium tuberculosis H37Ra ITM-M006710 (ATCC 9431); experiment: Microplate Alamar Blue Assay (MABA), Mtb H37Ra; type: cell-based; details: for MIC: Mycobacterium tuberculosis, 120 h, pH 6.6, MABA, Middlebrook 7H9 broth pH 6.6, resazurin after 120 h, read-out: Mtb H37Ra MIC; for antimycobacterial activity (in words): activity refers to Mtb H37Ra from the primary screening if not otherwise stated
[3] = test system: Acinetobacter baumannii DSM 30007 (ATCC 19606); experiment: Antibacterial microdilution broth (EUCAST), ACI; type: cell-based; details: Acinetobacter baumannii; read after 24 h; read-out: ACI MIC
[4] = test system: Escherichia coli CCM 3954 (ATCC 25922); experiment: Antibacterial microdilution broth (EUCAST), EC; type: cell-based; details: Escherichia coli; read after 24 h; read-out: EC MIC
[5] = test system: Lichtheimia corymbifera CCM 8077; experiment: Antifungal microdilution broth (EUCAST), LC; type: cell-based; details: Lichtheimia corymbifera, CCM8077; read after 24 h; read-out: LC MIC
[6] = test system: Candida parapsilosis CCM 8260 (ATCC 22019); experiment: Antifungal microdilution broth (EUCAST), CP; type: cell-based; details: Lodderomyces parapsilosis; read after 24 h; read-out: CP MIC
[7] = test system: Aspergillus fumigatus ATCC 204305; experiment: Antifungal microdilution broth (EUCAST), AF; type: cell-based; details: Aspergillus fumigatus, ATCC204305; read after 24 h; read-out: AF MIC
[8] = test system: Pseudomonas aeruginosa CCM 3955 (ATCC 27853); experiment: Antibacterial microdilution broth (EUCAST), PA; type: cell-based; details: Pseudomonas aeruginosa; read after 24 h; read-out: PA MIC
[9] = test system: Klebsiella pneumoniae CCM 4415 (ATCC 10031); experiment: Antibacterial microdilution broth (EUCAST), KP; details: read after 24 h
[10] = test system: HepG2 human hepatocellular carcinoma cells; experiment: In vitro HepG2 cytotoxicity (CellTiter 96); details: for IC50: Homo sapiens, HepG2, 24 h, read-out: HepG2 IC50, 24 h incubation, * limit = highest evaluated concentration (precipitation in medium), ** over the 1000 µM limit; for solubility in the testing medium (in words): HepG2 cell culture medium
[11] = test system: Enterococcus faecalis CCM 4224 (ATCC 29212); experiment: Antibacterial microdilution broth (EUCAST), EF; type: cell-based; details: Enterococcus faecalis; read after 24 h; read-out: EF MIC
[12] = test system: M. aurum DSM 43999 (ATCC 23366); experiment: Microplate Alamar Blue Assay (MABA), M. aurum; type: cell-based; details: Mycolicibacterium aurum, read-out: M. aurum MIC
[13] = test system: Aspergillus flavus CCM 8363; experiment: Antifungal microdilution broth (EUCAST), AFla; type: cell-based; details: Aspergillus flavus, CCM8363; read after 24 h; read-out: AFla MIC
[14] = test system: Mycobacterium smegmatis DSM 43465 (ATCC 607); experiment: Microplate Alamar Blue Assay (MABA), M. smegmatis; type: cell-based; details: Mycolicibacterium smegmatis, read-out: M. smegmatis MIC
[15] = test system: Candida tropicalis CCM 8264 (ATCC 750); experiment: Antifungal microdilution broth (EUCAST), CT; type: cell-based; details: Candida tropicalis; read after 24 h; read-out: CT MIC
[16] = test system: Staphylococcus aureus subsp. aureus CCM 4223 (ATCC 29213); experiment: Antibacterial microdilution broth (EUCAST), SA; type: cell-based; details: Staphylococcus aureus; read after 24 h; read-out: SA MIC
[17] = test system: Candida albicans CCM 8320 (ATCC 24433); experiment: Antifungal microdilution broth (EUCAST), CA; type: cell-based; details: Candida albicans; read after 24 h; read-out: CA MIC
[18] = test system: Staphylococcus aureus subsp. aureus methicillin-resistant (MRSA) CCM 4750 (ATCC 43300); experiment: Antibacterial microdilution broth (EUCAST), MRSA; type: cell-based; details: Staphylococcus aureus; read after 24 h; read-out: MRSA MIC
[19] = test system: Staphylococcus epidermidis CCM 4418 (ATCC 12228); experiment: Antibacterial microdilution broth (EUCAST), SE; type: cell-based; details: read after 24 h, read-out: SE MIC
[20] = test system: Candida krusei CCM 8271 (ATCC 6258); experiment: Antifungal microdilution broth (EUCAST), CK; type: cell-based; details: Pichia kudriavzevii; read after 24 h; read-out: CK MIC

| SMILES | MIC [1] [µM] | MIC [2] [µg/mL] | MIC [3] [µM] | MIC [4] [µM] | MIC [5] [µM] | MIC [6] [µM] | MIC [7] [µM] | MIC [8] [µM] | KP MIC [9] [µM] | IC50 [10] [µM] | MIC [11] [µM] | MIC [13] [µM] | melting point [°C] | MIC [15] [µM] | MIC [16] [µM] | MIC [17] [µM] | MIC [18] [µM] | MIC [19] [µM] | MIC [20] [µM] | MIC ([12]; MABA, resazurin after 72 h) [µg/mL] | also measured |
| --- | --- | --- | --- | --- | --- | --- | --- | --- | --- | --- | --- | --- | --- | --- | --- | --- | --- | --- | --- | --- | --- |
| COc1ccc(C(=O)Nc2nccnc2C(N)=O)cc1 [Compound 9] | > 125 | ≥ 125 | > 125 | > 125 | > 125 | > 125 | > 125 | > 125 | > 125 | > 250 | > 125 | > 125 | 257 to 258.5 | > 125 | > 125 | > 125 | > 125 | > 125 | > 125 |  | MIC ([12]; 72 h): ≥ 125 µg/mL; MIC ([14]; 48 h): ≥ 125 µg/mL |
| NC(=O)c1nccnc1NC(=O)c1ccccc1F [Compound 10] | > 500 | 250 (≈ 961 µM) | > 500 | > 500 | > 500 | > 500 | > 500 | > 500 | > 500 | 556 | > 500 | > 500 | 211 to 213 | > 500 | > 500 | > 500 | > 500 | > 500 | > 500 | ≥ 500 | MIC ([14]; MABA, resazurin after 48 h): ≥ 500 µg/mL |
| NC(=O)c1nccnc1NC(=O)c1cccc(F)c1 [Compound 11] | > 250 | ≥ 125 | > 250 | > 250 | > 250 | > 250 | > 250 | > 250 | > 250 | > 50 | > 250 | > 250 | 234.1 to 236 | > 250 | > 250 | > 250 | > 250 | > 250 | > 250 |  | solubility in the testing medium (in words) [10]: low solubility; MIC ([12]; 72 h): ≥ 125 µg/mL; MIC ([14]; 48 h): ≥ 125 µg/mL |
| NC(=O)c1nccnc1NC(=O)c1ccccc1Br [Compound 16] | > 500 | ≥ 250 | > 500 | > 500 | > 500 | > 500 | > 500 | > 500 | > 500 | > 500 | > 500 | > 500 | 223.1 to 225.1 | > 500 | > 500 | > 500 | > 500 | > 500 | > 500 | ≥ 250 | MIC ([14]; MABA, resazurin after 48 h): ≥ 250 µg/mL |
| NC(=O)c1nccnc1NC(=O)c1cccc(Br)c1 [Compound 17] | > 125 | ≥ 125 | > 125 | > 125 | > 125 | > 125 | > 125 | > 125 | > 125 | > 5 | > 125 | > 125 | 255 to 256 | > 125 | > 125 | > 125 | > 125 | > 125 | > 125 |  | solubility in the testing medium (in words) [10]: low solubility; MIC ([12]; 72 h): ≥ 125 µg/mL; MIC ([14]; 48 h): ≥ 125 µg/mL |
| NC(=O)c1nccnc1NC(=O)c1cc(Cl)cc(Cl)c1 [Compound 19] | > 500 | ≥ 62.5 | > 500 | > 500 | > 500 | > 500 | > 500 | > 500 | > 500 | > 250 | > 500 | > 500 | > 300 | > 500 | > 500 | > 500 | > 500 | > 500 | > 500 |  | MIC ([12]; 72 h): ≥ 62.5 µg/mL; MIC ([14]; 48 h): ≥ 62.5 µg/mL |
| NC(=O)c1nccnc1NC(=O)c1ccccc1C(F)(F)F [Compound 20] | > 500 | 500 (≈ 1610 µM) | > 500 | > 500 | > 500 | > 500 | > 500 | > 500 | > 500 | > 250 | > 500 | > 500 | 201.5 to 202.4 | > 500 | > 500 | > 500 | > 500 | > 500 | > 500 | ≥ 500 | MIC ([14]; MABA, resazurin after 48 h): ≥ 500 µg/mL |
| NC(=O)c1nccnc1NC(=O)c1ccc([N+](=O)[O-])cc1 [Compound 21, 3-(4-nitrobenzamido)pyrazine-2-carboxamide] | > 125 | 250 (≈ 870 µM) | > 125 | > 125 | > 125 | > 125 | > 125 | > 125 | > 125 | > 100 | > 125 | > 125 | > 300 | > 125 | > 125 | > 125 | > 125 | > 125 | > 125 | ≥ 500 | MIC ([14]; MABA, resazurin after 48 h): 250 µg/mL (≈ 870 µM) |
| NC(=O)c1nccnc1NC(=O)Cc1ccc(F)cc1 [Compound 25] | > 250 | ≥ 250 | > 250 | > 250 | > 250 | > 250 | > 250 | > 250 | > 250 | > 100 | > 250 | > 250 | 225.3 to 227.3 | > 250 | > 250 | > 250 | > 250 | > 250 | > 250 | ≥ 250 | antimycobacterial activity (in words) [2]: inactive; MIC ([14]; MABA, resazurin after 48 h): ≥ 250 µg/mL |
| NC(=O)c1nccnc1NC(=O)CCc1ccccc1 [Compound 26] | > 500 | 125 (≈ 462 µM) | > 500 | > 500 | > 500 | > 500 | > 500 | > 500 | > 500 | > 500 | > 500 | > 500 | 160.3 to 161.5 | > 500 | > 500 | > 500 | > 500 | > 500 | > 500 | ≥ 500 | antimycobacterial activity (in words) [2]: inactive; MIC ([14]; MABA, resazurin after 48 h): ≥ 500 µg/mL |
| NC(=O)c1nccnc1NC(=O)C1CCCCC1 [Compound 27] | > 500 | 125 (≈ 503 µM) | > 500 | > 500 | > 500 | > 500 | > 500 | > 500 | > 500 | > 1000 | > 500 | > 500 | 105.5 to 107 | > 500 | > 500 | > 500 | > 500 | > 500 | > 500 | ≥ 500 | MIC ([14]; MABA, resazurin after 48 h): 250 µg/mL (≈ 1010 µM) |
